{"source": "paper PMC9000801", "about": "“Bioactivities and Mode of Actions of Dibutyl Phthalates and Nocardamine from Streptomyces sp. H11809” (Molecules, 2022)", "target": "T1, human GSK-3β (Hs GSK-3β) (Homo sapiens, UniProt P49841)", "T1 construct": "gene GSK3B", "T1 sequence (P49841 whole entry)": "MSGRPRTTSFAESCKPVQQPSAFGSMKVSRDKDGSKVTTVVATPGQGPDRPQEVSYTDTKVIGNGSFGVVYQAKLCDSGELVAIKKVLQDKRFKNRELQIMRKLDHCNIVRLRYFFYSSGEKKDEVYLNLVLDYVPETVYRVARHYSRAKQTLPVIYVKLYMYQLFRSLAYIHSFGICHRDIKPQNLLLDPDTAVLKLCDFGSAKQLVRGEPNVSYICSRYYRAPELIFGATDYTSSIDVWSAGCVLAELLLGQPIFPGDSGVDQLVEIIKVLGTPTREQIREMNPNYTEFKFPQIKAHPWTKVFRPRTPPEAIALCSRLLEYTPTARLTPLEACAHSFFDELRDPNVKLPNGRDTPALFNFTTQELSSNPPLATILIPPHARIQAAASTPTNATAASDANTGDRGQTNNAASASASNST", "experiment": "Kinase-Glo Plus luminescent kinase assay with recombinant enzyme; Michaelis-Menten and Lineweaver-Burk kinetics", "type": "biochemical", "data": [{"smiles": "CCCCOC(=O)c1ccccc1C(=O)OCCCC", "note": "[DBP, dibutyl phthalate]", "values": [{"measurement": "IC50", "value": 2000, "unit": "nM"}]}]}
